In patent publication US20260055061A1, “HALOPHTHALIMIDE COMPOUNDS AND METHODS OF USE AGAINST TBI, INFLAMMATORY DISORDER, AUTOIMMUNE DISORDER, NEURODEGENERATIVE DISEASE OR VIRAL INFECTION” (The United States of America, as represented by the …, priority 2022, published 2026):
Entries after “also recorded” stand apart in the source; their conditions may differ.

What was measured:
chicken embryos = test: Chick embryo teratogenicity; assay type: in vivo
Protocol: Chick embryology and analysis: Chicken eggs were obtained from Henry Stewart & Co Ltd, Norfolk UK. All work with chicken embryos obeyed UK Home Office regulations and followed guidelines, standards and practices governed by the University of Aberdeen Ethics Committee (Scotland, UK). […] Embryos were incubated at 37° C. for the required time period to reach E2.5 and E4 (early and mid-developmental stages, respectively). Eggs were then opened and the embryonic membranes protecting the embryos were removed with forceps. Chicken embryos typically lie on one side, so the left side is directly against the yolk and the right side can be observed. Drug (TFBP) or Control (DMSO alone) solutions were applied in 100 μL aliquots over the middle of the embryo on its right side. Embryos were left at room temperature for 20 min before being replaced in a 37° C. incubator. Due to the limited diffusion of drugs when applied to the right side of an embryo, the right side is considered the ‘treatment’ side and the left (facing internally towards the yolk sack) is considered normal after treatment and can, thereby, act as an internal control.

CCI-induced TBI mice = test: CCI mouse model of TBI: DigiGait gait analysis; assay type: in vivo; details: high dose 32.5 mg/kg; 1 week after CCI
Protocol: In vivo model of TBI: Mice were anesthetized with 2.5% tribromoethanol (Avertin: 250 mg/kg; Sigma, St. Louis, MO, USA) and placed in a stereotaxic frame (Kopf Instruments, Tujunga, CA, USA). A 4 mm craniotomy was performed using sterile procedures; the craniotomy point was selected midway between the lambda and bregma sutures and laterally midway between the central suture and the temporalis muscle. The skull fragment was then carefully removed without disruption of the underlying dura. Prior to injury induction, the tip of the impactor was angled and kept perpendicular to the exposed cortical surface. The mouse CCI instrument consisted of an electromagnetic impactor, Impact One (Leica Biosystems Inc., Buffalo Grove, IL, USA) that allows independent alteration of injury severity by controlling contact velocity and the level of cortical deformation. In these experiments, the contact velocity was set at 5.0 m/sec, the dwell time was set at 0.2 s and the deformation depth was set at 2 mm to produce a moderate TBI. The injury site was allowed to dry prior to suturing the wound. During surgery and recovery, the body temperature of the animals was maintained at 36-37° C. by using a heating pad. […] Mice were randomized following CCI to treatment with either of two doses of TFBP (16.25 mg/kg and 32.5 mg/kg, i.p.) or saline, and were dosed at 1 and 24 hr after the injury.
Behavioral assessment for motor functions and coordination: Behavioral tests were performed 1 week and 2 weeks after injury, to assess changes in motor functions and coordination. All tests were performed during the animals' light phase; cages were transported to testing rooms at least 30 min prior to testing.
Gait analysis: For the gait analysis, mice were tested on a fixed-speed treadmill apparatus (DigiGait; Mouse Specifics). Mice were habituated to the apparatus for 1 min, and then given a 1-min run at 5 cm/s. Following a 1-min rest, the treadmill speed was increased to 15 cm/s. Video was collected at high speed from a ventrally placed camera, and 3-5 s of representative gait video was selected by an experienced but blinded user for automated analysis.
In Vivo Model of TBI: TBI studies were conducted in 8-week-old male C57/BL6 mice (25-30 g; n=20), Jackson Laboratory, Bar Harbor, Maine USA. Mice were randomly assigned to four groups prior surgery, CMC+Sham, CMC+TBI, compound 30 (Low dose (LD), 14.78 mg/kg, prepared in 1% CMC in PBS)+TBI, compound 30 (High dose (HD), 29.57 mg/kg)+TBI, and evaluated the effects of compound 30 on TBI. Mice were assessed for gait function and motor coordination, balance function. Animals were subsequently evaluated for cellular changes using histological and immunohistochemistry staining. […]

KC/GRO (CXCL1) = test: LPS model of inflammation in rats: KC/GRO (CXCL1); assay type: in vivo; details: 29.57 mg/kg i.p.; LPS rat model
Protocol: (§1) Four hours after LPS injection, animals were euthanized, and blood and brain tissue were collected and placed on wet ice. Plasma was quickly separated from blood by centrifuge at 10,000 g. 5 min, 4° C., and brain regions of cortex, hippocampus and the rest of brain were dissected into separate vials on wet ice, then stored at −80° C. Brain tissues were then sonicated in a TRIS based lysis buffer (Mesoscale Discovery) with 3× protease/phosphatase inhibitors (Halt™ Protease and Phosphatase Inhibitor Cocktail, Thermo Fisher Scientific), were then centrifuged at 10,000 g, 10 min, 4° C., and protein concentrations were measured by Bicinchoninic acid assay (BCA, Thermo Fisher Scientific). Rat plasma, cerebral cortical and hippocampal samples were then analyzed by multi-proinflammatory cytokines ELISA (V-PLEX Proinflammatory Panel 2 Rat Kit, Mesoscale Discovery), following the manufacturer's protocol. The processes and dosages of the experiment of drug treatment effects on LPS rat model was made on the basis of our previous studies.

IL-6 = test: LPS model of inflammation in rats: IL-6 in plasma, cortex, hippocampus; assay type: in vivo; details: 29.57 mg/kg i.p.; LPS rat model
Protocol: as §1

[1] = Phase I metabolic stability in human liver microsomes (+/- NADPH, LC/MS); assay type: in vitro ADME
Protocol: The fluorinated compounds were evaluated under the more metabolically demanding conditions of a Phase-1-type microsomal analysis. […] For this initial comparison, the 7-fluoro-dithiopomaldiomide 30 was selected owing to its combination of favorable biological parameters and general ease of synthesis. The reactions on each sample were initiated by addition of human liver microsomes in the presence or absence of an NADPH regenerating system, and compound disappearance was monitored via LC/MS (FIG. 14, Table 10).

[2] = 3.5 μM, chicken embryos age E4, N = 7
[3] = 7.0 μM, chicken embryos age E2.5, N = 6
[4] = 7.0 μM, chicken embryos age E4, N = 7
[5] = 14.0 μM, chicken embryos age E2.5, N = 6

With `CC1(C)[C@@H]2CC[C@@]1(C)[C@@H](N1C(=O)c3c(F)c(F)c(F)c(F)c3C1=O)C2` [Compound 14, 4,5,6,7-Tetrafluoro-2-((1R,2S,4R)-1,7,7-trimethylbicyclo[2.2.1]heptan-2-yl) isoindoline-1,3-dione] the Abnormal embryos (chicken embryos; [2]) was 0, the Dead embryos (chicken embryos; [2]) was 0 and the Normal embryos (chicken embryos; [2]) was 7. For the same compound, the Abnormal embryos (chicken embryos; [3]) was 0, the Dead embryos (chicken embryos; [3]) was 2 and the Normal embryos (chicken embryos; [3]) was 4. It also gave an Abnormal embryos (chicken embryos; [4]) of 0, a Dead embryos (chicken embryos; [4]) of 3 and a Normal embryos (chicken embryos; [4]) of 4. The Dead embryos (chicken embryos; [5]) was 3, the Normal embryos (chicken embryos; [5]) was 2 and the “developmental anomaly in chicken embryos” value (chicken embryos; 14.0 μM, a single embryo, eye on control side) was “micro-opthalmia of the eye”. For the same compound, the “deaths of chicken embryos” value (chicken embryos; 14.0 μM, around 48-72 h after application) was “three deaths”, the “effects on embryo development” value (chicken embryos; 3.5 and 7.0 μM) was “No effects on embryo development” and the “tolerability in chicken embryos” value (chicken embryos; lower dose 3.5 μM, E2.5 and E4) was “well tolerated”. The “death rate in chicken embryos” value (chicken embryos; two higher doses 7.0 and 14.0 μM) was “increasing death rate” and the gait brake time (CCI-induced TBI mice) was “fully mitigates this rise”.
In the case of `Nc1ccc(F)c2c1C(=S)N(C1CCC(=S)NC1=O)C2=O` (stereo not shown) [Compound 30, 4-amino-7-fluoro-2-(2-oxo-6-thioxopiperidin-3-yl)-3-thioxoisoindolin-1-one], the KC/GRO in brain (KC/GRO (CXCL1)) is reported as “significantly reduce”, the “IL-6 in plasma, cortex, and hippocampus” value (IL-6) is reported as “significantly reduce” and the “more material remaining compared to non-fluorinated partner” value ([1]; vs 4′, human liver microsomes) is reported as “roughly 16%”. For the same compound, the “more stability in the absolute sense” value ([1]; vs non-fluorinated 4′, human liver microsomes) was 7% and the “stability in human liver microsomes (in words)” value ([1]; with and without NADPH) was “heightened resistance; also recorded: enhanced metabolic fortitude”.
